Experimental data taken from patent publication US20180371021A1, “PEPTIDOMIMETIC MACROCYCLES AND USES THEREOF” (Aileron Therapeutics, Inc., priority 2017, published 2018).
Bridge positions count the residues as written; N and C are the ends. Square brackets hold non-standard residues; d marks the D form. Peptide text beside a SMILES is read from it. Phe(4-COOH) = N[C@@H](Cc1ccc(C(=O)O)cc1)C(=O)O; R8 = C=CCCCCCC[C@@](C)(N)C(=O)O; Cba = N[C@@H](CC1CCC1)C(=O)O; S5 = C=CCCC[C@](C)(N)C(=O)O

Legend:
[1] = system: SJSA-1 osteosarcoma xenograft; test: SJSA-1 osteosarcoma xenograft model, AP1 and palbociclib; assay type: in vivo, mice; conditions: AP1 20 mg/kg qwkx4, palbociclib 75 mg/kg qdx22
Description: (§1) The group was not euthanized, and the mice were allowed to recover. […] Animals were monitored individually. […] Responders were followed for a longer period of time. When the endpoint was reached, the animals were euthanized. […] An aqueous phosphate-buffered saline solution or sodium lactate (50 mM, pH 4.0) solution was used as the vehicle.

[2] = system: MCF-7.1 human breast carcinoma xenograft; test: MCF-7.1 human breast carcinoma xenograft model, AP1 and palbociclib; assay type: in vivo, mice; conditions: AP1 20 mg/kg qwkx4, palbociclib 75 mg/kg qdx22
Description: as §1, with “Female athymic nude mice were provided with drinking water with 10 μg/mL with 17 beta estradiol supplementation 3 days prior to cell implantation and for the duration of the study. […] The mice were between 8-12 weeks of age at the beginning of the study. […] The” for “The”

[3] = system: A549 xenograft; test: A549 xenograft model, AP1 and palbociclib; assay type: in vivo, mice; conditions: AP1 20 mg/kg qwkx4, palbociclib 75 mg/kg qdx22
Description: The arrows indicate spontaneous tumor shrinkage in vehicle controls. The arrows with * indicate poor growth of tumors late in the study.

[4] = 39 patients treated with nivolumab; 30 patients treated with pembrolizumab; cited from earlier work
[5] = system: MCF-7 breast cancer xenograft; test: MCF-7 breast cancer xenograft study using SP315, SP249 and SP154; assay type: in vivo, mice
Description: Slow release 90 day 0.72 mg 17β-estradiol pellets were implanted subcutaneously (sc) on the nape of the neck one day prior to tumor cell implantation (Day −1). On Day 0, MCF-7 tumor cells were implanted sc in the flank of female nude (Cr1:NU-Foxn1nu) mice. On Day 18, the resultant sc tumors were measured using calipers to determine their length and width, and the mice were weighed. The tumor sizes were calculated using the formula (length×width^2)/2, and expressed as cubic millimeters (mm^3). Mice with tumors smaller than 85.3 mm^3 or larger than 417.4 mm^3 were excluded from the subsequent group formation. Thirteen groups of mice, 10 mice per group, were formed by randomization such that the group mean tumor sizes were essentially equivalent (mean of groups±standard deviation of groups=180.7±17.5 mm^3).
The peptide formulations were prepared once for the duration of the study. The vehicle was used as the vehicle control in the subsequent study.
Each group was assigned to a different treatment regimen. Group 1, as the vehicle negative control group, received the vehicle administered at 8 mL/kg body weight intravenously (I.V.) three times per week from Days 18-39. […] Group 4 received 6.7 mg/kg SP249 as an I.V. injection three times per week. […] Group 9 received 30 mg/kg SP252 as an I.V. injection three times per week.
During the dosing period, the mice were weighed and the tumors were measured 1-2 times per week. Tumor growth inhibition was compared with the vehicle group. Tumor growth inhibition (TGI) was calculated as
where x=day that effect of treatment is being assessed.

[6] = d22, calculated using vehicle median volumes on d0 and d22
[7] = three consecutive measurements > 150% of d1 volume

## CC(=O)c1c(C)c2cnc(Nc3ccc(N4CCNCC4)cn3)nc2n(C2CCCC2)c1=O [palbociclib, reference compound]
[1]; D1 (start of dosing), SJSA-1 xenograft, nude mice
  Median tumor volume (mm^3) D1: 126 mm^3
[1]; D22, SJSA-1 xenograft, nude mice
  Median tumor volume (mm^3) D22: 1418 mm^3
[1]; SJSA-1 xenograft
  Median time to tumor volume > 1000 mm^3: 18 days
  Median time to tumor volume > 2000 mm^3: 24 days
[1]; [6]
  % TGI (±SEM) on d22 (end of dosing): 51 (9) %
[1]; [7]
  Animals with disease progression: 9/10
[2]; D1 (start of dosing), MCF-7.1 xenograft, nude mice
  Median tumor volume (mm^3) D1: 108 mm^3
[2]; D22, MCF-7.1 xenograft, nude mice
  Median tumor volume (mm^3) D22: 196 mm^3
[2]; MCF-7.1 xenograft
  Median time to tumor volume > 500 mm^3: 37 days
  Median time to tumor volume > 1000 mm^3: 48 days
[2]; [6]
  % TGI (±SEM) on d22 (end of dosing): 84 (4) %
[2]; [7]
  Animals with disease progression: 8/8
[3]; D1 (start of dosing), A549 xenograft, nude mice
  Median tumor volume (mm^3) D1: 126 mm^3
[3]; D22, A549 xenograft, nude mice
  Median tumor volume (mm^3) D22: 288 mm^3
[3]; [6]
  % TGI (±SEM) on d22 (end of dosing): 62 (7) %
[3]; [7]
  Animals with disease progression: 9/10

## nivolumab: PD-1/PD-L1 antagonist
[4]
  PRs: 2
  SDs: 12
  complete responses: 1
  shrinkages among SDs: 2

## CC[C@H](C)[C@H](NC(=O)[C@H](C)NC(=O)[C@H](C)NC(=O)[C@]1(C)CCCC=CCCCCCC[C@@](C)(NC(=O)[C@H](Cc2ccccc2)NC(=O)[C@@H](NC(=O)[C@H](CC(C)C)NC(C)=O)[C@@H](C)O)C(=O)N[C@@H](CCC(=O)O)C(=O)N[C@@H](Cc2ccc(C(=O)O)cc2)C(=O)N[C@@H](Cc2c[nH]c3ccccc23)C(=O)N[C@@H](C)C(=O)N[C@@H](CCC(N)=O)C(=O)N[C@@H](CC2CCC2)C(=O)N1)C(=O)N[C@H](C)C(N)=O [SP249] (Ac-LTF[R8]E[Phe(4-COOH)]WAQ[Cba][S5]AAI[dA]-NH2; staple 4-11)
[5]; […] three times per week
  mice died: 4

## pembrolizumab: PD-1/PD-L1 antagonist
[4]
  PRs: 3
  SDs: 11
  complete responses: 2
  shrinkages among SDs: 3

## CC(=O)N[C@@H](CC(C)C)C(=O)N[C@H](C(=O)N[C@@H](C)C(=O)N[C@]1(C)CCCCCCC=CCCC[C@@](C)(C(=O)N[C@@H](CO)C(=O)N[C@@H](C)C(=O)N[C@@H](C)C(N)=O)NC(=O)[C@H](CC2CCC2)NC(=O)[C@H](CCC(N)=O)NC(=O)[C@H](C)NC(=O)[C@H](Cc2c[nH]c3ccccc23)NC(=O)[C@H](Cc2ccc(O)cc2)NC(=O)[C@H](CCC(=O)O)NC1=O)[C@@H](C)O [SP252]
[5]; 30 mg/kg three times per week
  body weight loss or deaths: No body weight loss or deaths
[5]; 30 mg/kg three times per week, day 32
  TGI: 88%
